Common to all, as to test: NCI tumour cell line growth inhibition, 48 h
Experiment [1] relates to EKVX.
Experiment [2] has as its system UACC-257.
Experiment [3] deals with UO-31.
Experiment [4] has as its system NCI-H460.
Experiment [5] deals with KM12.
Experiment [6] concerns NCI-H522.
For experiment [7], the system named is SNB-75.
The subject of experiment [8] is Malme-3M.
Experiment [9] relates to SN12C.
Experiment [10] concerns CAKI-1.
Experiment [11] relates to 786-0.
In experiment [12] the test system is MCF7.
Experiment [13] has as its system MDA-MB-435.
Experiment [14] relates to SF-295.
Experiment [15] relates to PC-3.
Experiment [16] relates to NCI-H226.
Experiment [17] has as its system HT-29.
Experiment [18] relates to K562.
In experiment [19] the test system is RPMI-8226.
Experiment [20] relates to CCRF-CEM.

Experimental findings from ChEMBL document CHEMBL1201862, “PubChem BioAssay data set” (2004) are described below.

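Results reflect a 48-hour exposure of cells in 96-well plates to compound at five concentrations. GI50: concentration for 50% inhibition of growth.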 Active and inactive are the calls of the source. Cut-off read from the data, not from the text of the source: active = GI50 up to about 1.1 µM and inactive = higher.

For the molecule `O=C(Cc1ccc(Cl)c(Cl)c1)NCCCN1CCN(CCCN2CCCCC2)CC1`, the GI50 in experiment [1] is 19.2 µM (inactive); in experiment [2], 5.26 µM (inactive); in [3], 1.84 µM (inactive); in experiment [4], 16.6 µM (inactive); in [5], 15.8 µM (inactive); in experiment [6], 15.7 µM (inactive). Further, the GI50 in experiment [7] was 19.5 µM (inactive); in experiment [8], 17.6 µM (inactive); in experiment [9], 18.8 µM (inactive); in [10], 20.4 µM (inactive); in experiment [11], 16.4 µM (inactive); in [12] it was 18.5 µM (inactive). Also, the GI50 in [13] is 1.9 µM (inactive); in experiment [14] it was 19 µM (inactive); in experiment [15], 18.5 µM (inactive); in [16] it was 21.7 µM (inactive); in experiment [17] it was 10.8 µM (inactive); in experiment [18], 2.17 µM (inactive). Further, the GI50 in experiment [19] was 2.71 µM (inactive); in experiment [20] it was 16 µM (inactive).
As for `Brc1c2c(c(Br)c3nsnc13)N=S=N2`, the GI50 was 27.2 µM (inactive) in [1]; 42.4 µM (inactive) in experiment [2]; 22.8 µM (inactive) in [3]; 25.3 µM (inactive) in experiment [4]; 46.3 µM (inactive) in experiment [5]; 23.4 µM (inactive) in experiment [6]. Besides, the GI50 was 25.1 µM (inactive) in experiment [7]; 31.3 µM (inactive) in [8]; 17.4 µM (inactive) in [9]; 19.1 µM (inactive) in [10]; 15.6 µM (inactive) in experiment [11]; 24.2 µM (inactive) in experiment [12]. The GI50 in experiment [13] was 29.7 µM (inactive); in experiment [14], 27.1 µM (inactive); in experiment [15], 32.7 µM (inactive); in [16], > 46.9 µM (inactive); in [17] it was 34.4 µM (inactive); in experiment [18], 10.1 µM (inactive). Besides, the GI50 was 22 µM (inactive) in experiment [19] and 2.65 µM (inactive) in [20].
Consider `CC12c3c4ccc(C=O)c3Oc3ccc(C=O)c(c31)Oc1ccc(C=O)c(c12)O4`, for which the GI50 in [1], in experiment [2], in [3], in experiment [4], in [5] and in [6] was > 25 µM (inactive) in each case. Besides, the GI50 in [7], in experiment [8], in experiment [9], in experiment [10], in experiment [11] and in [12] was > 25 µM (inactive) each time. The GI50 in experiment [13], in experiment [14], in experiment [15], in experiment [16], in [17] and in experiment [18] was > 25 µM (inactive) in each case. Besides, the GI50 in experiment [19] is > 25 µM (inactive); in experiment [20], 17.5 µM (inactive).
In the case of `C=CC(Br)(CBr)CCC(Br)C(C)C` (stereo unspecified), the GI50 in [1] was 18.3 µM (inactive); in experiment [2], 8.18 µM (inactive); in [3], 13 µM (inactive); in experiment [4], 4.71 µM (inactive); in [5], 2.18 µM (inactive); in experiment [6] it was 1.49 µM (inactive). Besides, the GI50 is 1.95 µM (inactive) in experiment [7]; 13.5 µM (inactive) in [8]; 10.7 µM (inactive) in [9]; 6.58 µM (inactive) in experiment [10]; 1.58 µM (inactive) in experiment [11]; 1.82 µM (inactive) in experiment [12]. Besides, the GI50 in [13] was 5.21 µM (inactive); in experiment [14] it was 4.26 µM (inactive); in [15], 7 µM (inactive); in experiment [16] it was 16.6 µM (inactive); in experiment [17] it was 2.79 µM (inactive); in experiment [18], 2.11 µM (inactive). Moreover, the values for the GI50 in experiment [19] and in experiment [20] were 1.25 µM (inactive) and 0.822 µM (active), respectively.
For `COc1ccccc1CC1(O)OC(=O)c2ccccc21` (stereo unspecified), the GI50 in experiment [1], in [2], in [3], in experiment [4], in experiment [5] and in experiment [6] was > 100 µM (inactive) in each case. In addition, the GI50 in [7], in [8], in experiment [9], in experiment [10], in [11] and in [12] was > 100 µM (inactive) throughout. In addition, the GI50 in [13], in [14], in [15], in [16], in experiment [17] and in experiment [18] was > 100 µM (inactive) throughout. Further, the GI50 in [19] and in experiment [20] was > 100 µM (inactive) each time.
In the case of `CN1CN(c2ccccc2)C2(CCN(CCCC3(c4cccs4)OCCO3)CC2)C1=O`, the GI50 in experiment [1], in [2], in experiment [3], in experiment [4], in experiment [5] and in experiment [6] was > 100 µM (inactive) in each case. Moreover, the GI50 in experiment [7] was 88.7 µM (inactive); in experiment [8], > 100 µM (inactive); in experiment [9], > 100 µM (inactive); in experiment [10] it was > 100 µM (inactive); in experiment [11], > 100 µM (inactive); in experiment [12], > 100 µM (inactive). Also, the GI50 in [13] was > 100 µM (inactive); in experiment [14], > 100 µM (inactive); in experiment [15] it was > 100 µM (inactive); in [16], > 100 µM (inactive); in [17] it was 36.1 µM (inactive); in experiment [18], > 100 µM (inactive). Further, the GI50 in experiment [19] and in [20] was > 100 µM (inactive) in each case.
`CCn1c(SCC(=O)NNC(=S)Nc2ccc([N+](=O)[O-])cc2)nc2ccccc2c1=O`: the GI50 in [1] is > 100 µM (inactive); in experiment [2], > 100 µM (inactive); in experiment [3], 39.5 µM (inactive); in [4] it was 48.8 µM (inactive); in experiment [5], 68.2 µM (inactive); in [6] it was 39.8 µM (inactive). In addition, the GI50 is 83.4 µM (inactive) in [7]; 73.5 µM (inactive) in experiment [8]; 50.9 µM (inactive) in experiment [9]; > 100 µM (inactive) in experiment [10]; 60.5 µM (inactive) in experiment [11]; 83.4 µM (inactive) in experiment [12]. Besides, the GI50 was > 100 µM (inactive) in experiment [13]; 58.2 µM (inactive) in [14]; 41.4 µM (inactive) in [15]; 90.4 µM (inactive) in [16]; 42.7 µM (inactive) in [18]; 29.9 µM (inactive) in experiment [19]. Besides, in experiment [20], the GI50 was 37.2 µM (inactive).
Regarding `C[Si](C)(c1ccc(C(=O)O)cc1)c1ccc(C(=O)O)cc1`, the GI50 in experiment [1], in [2], in [4], in [5], in [6] and in experiment [7] was > 100 µM (inactive) each time. Besides, the GI50 in [8], in [9], in [10], in [11], in experiment [12] and in [13] was > 100 µM (inactive) throughout. The GI50 in [14], in experiment [15], in experiment [16], in [17], in [18] and in [19] was > 100 µM (inactive) each time. Besides, in experiment [20], the GI50 was > 100 µM (inactive).
Consider `O=[N+]([O-])c1ccc(-c2nc3ccccc3o2)cc1`, for which the GI50 in experiment [1], in experiment [2], in experiment [3], in experiment [4], in experiment [5] and in experiment [6] was > 100 µM (inactive) throughout. For the same molecule, the GI50 in experiment [7], in experiment [8], in experiment [9], in [10], in experiment [11] and in experiment [12] was > 100 µM (inactive) in each case. For the same molecule, the GI50 in experiment [13], in experiment [14], in [15], in [16], in [18] and in experiment [19] was > 100 µM (inactive) throughout. Besides, the GI50 in [20] is 40.4 µM (inactive).
For the molecule `CCOC(=O)CC1C(O)C(=O)N(C)C1c1ccccc1` (stereo unspecified), the GI50 in experiment [1], in experiment [2], in [3], in [5], in [6] and in experiment [7] was > 100 µM (inactive) each time. The GI50 in experiment [8], in [9], in [10], in [11], in experiment [12] and in experiment [13] was > 100 µM (inactive) throughout. In addition, the GI50 in experiment [14], in experiment [15], in experiment [16], in experiment [17], in [18] and in experiment [19] was > 100 µM (inactive) each time. For the same molecule, the GI50 in experiment [20] is > 100 µM (inactive).
